From patent US20030153549A1, “Clavams as protease inhibitors” (priority 2000, published 2003)

What was measured:
[1] = molecular target: porcine pancreatic elastase PPE (Sus scrofa, UniProt P00772); assay: Enzyme assay: hydrolysis of Suc-AlaAlaProAla-pNa by PPE, measured at 405 nm; assay type: biochemical; conditions: for IC50: substrate 100 μM, 25° C., pH 7.5, 10% DMSO; for inhibitory potency with pre-incubation of the clavam with PPE: with pre-incubation versus without
Method: Enzyme assays. Enzyme assays were performed using a Shimadzu 1601PC spectrophotometer equipped with a thermostatted multi-cell transport system. The hydrolysis of the para-nitroanilide substrate (Suc-AlaAlaProAla-pNa, 100 μM) was measured at 405 nm and at a constant temperature of 25° C. in 0.1 M Tris-HCl buffer (pH 7.5). At least quadruplicate measurements of the initial rate were determined at five inhibitor concentrations and data analysed using standard kinetic equations programmed into Excel (Microsoft Corp.) and Grafit (Erithacus Inc.). To aid solubility the clavam inhibitors were dissolved in DMSO to give a final concentration in the assay of 10% (v/v).
It is likely that the lack of inhibition observed from clavulanic acid (1) is due to the presence of a negative charge on the carboxylic acid on C-3 which prevents binding within the PPE active site.

PPE [2] = molecular target: T1, PPE (Sus scrofa, UniProt P00772); assay: Electrospray ionisation mass spectrometry of PPE incubated with one equivalent of inhibitor (adduct formation); assay type: binding, porcine; conditions: time points 3 minutes to 5 hours, unbuffered
T1 sequence (P00772 27-266): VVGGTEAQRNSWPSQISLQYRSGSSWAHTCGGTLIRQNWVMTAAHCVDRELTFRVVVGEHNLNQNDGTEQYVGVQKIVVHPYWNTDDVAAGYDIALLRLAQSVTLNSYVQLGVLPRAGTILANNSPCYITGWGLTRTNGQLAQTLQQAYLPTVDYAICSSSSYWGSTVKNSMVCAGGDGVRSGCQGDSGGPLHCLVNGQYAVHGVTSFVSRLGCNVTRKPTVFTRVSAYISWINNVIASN
Method: Electrospray ionisation mass spectrometry. Electrospray ionisation mass spectra were recorded on a Micromass BioQ II-ZS triple quadruple mass spectrometer equipped with an electrospray interface. PPE at 80 pmol μl^−1 was incubated with one equivalent of inhibitor. Samples (5 μl) were removed at fixed time points, diluted with water:acetonitrile (1:1 v/v) containing 0.2% (v/v) formic acid to give a protein concentration of 5 pmol μl^−1 and analysed immediately. The resulting electrospray mass spectra were calibrated relative to native porcine pancreatic elastase PPE and processed using the MaxEnt algorithm and the spectra reported as centroided data.

PPE [3] = molecular target: T1, PPE; assay: 1H NMR analysis of incubation of PPE with clavulanic acid derivative (ester hydrolysis); assay type: biochemical, porcine; conditions: D2O/CD3CN, 303K
Method: NMR experimental procedures. ^1H NMR analyses were performed at 500 MHz on a Bruker AMX500 instrument. Samples (450-500 μl) of PPE (ca. 3 mg) and clavulanic acid derivative (ca 3 mg) were dissolved in 10% (v/v) CD3CN in D2O. The temperature was regulated at 303K and the spectra were referenced to internal MeCN at 2.05 ppm.
Their identity was subsequently confirmed by doping experiments.

Chain of porcine pancreatic elastase PPE (P00772 27-266): as above

Structure (SMILES) | inhibition of PPE ([1]; standard assay conditions) | mass increments / adducts relative to native PPE (ESIMS) (PPE [2]) | inhibition ([1]; pre-incubation of clavam with PPE 15 minutes) [%] | inhibition ([1]; pre-incubation of clavam with PPE 30 minutes) [%] | inhibition ([1]; pre-incubation of clavam with PPE 60 minutes) [%] | IC50 ([1]; standard assay conditions) [µM] | inhibitory potency with pre-incubation of the clavam with PPE [1] | PPE-catalysed hydrolysis of the ester side chain (1H NMR) (PPE [3])
O=C(O)[C@H]1/C(=C/CO)O[C@@H]2CC(=O)N21 [compound 1, Clavulanic acid, reference compound] | did not inhibit PPE | no mass increments |  |  |  |  |  | 
O=C(OCc1ccccc1)[C@H]1/C(=C/CO)O[C@@H]2CC(=O)N21 [compound 9] |  | formation of an initial acyl-enzyme complex | 43 | 87 | 93 | 184 | increased significantly | just visible after a one hour incubation period
O=C(OCc1ccc([N+](=O)[O-])cc1)[C@H]1/C(=C/CO)O[C@@H]2CC(=O)N21 [compound 10] |  | formation of the 70 and 88 Da adducts appeared to be slightly faster |  |  |  | 187 | increased significantly | 
